Results published in publication PMC12748989 (Nature Communications, 2025).

Assays:
PBMC = settings: 12.5 µM

SMILES	Average (percentage cell inhibition), Dmastoparan MDA-MB231 12.5uM (MDA-MB-231 cells) [%]	Average (percentage cell inhibition), Mastoparan PBMC (PBMC) [%]
CC[C@H](C)[C@H](N)C(=O)N[C@@H](CC(C)C)C(=O)N[C@@H](CC(C)C)C(=O)N[C@@H](CCCCN)C(=O)N[C@@H](C)C(=O)N[C@@H](CC(C)C)C(=O)N[C@@H](C)C(=O)N[C@@H](C)C(=O)N[C@@H](CC(C)C)C(=O)N[C@@H](C)C(=O)N[C@@H](CCCCN)C(=O)N[C@@H](CCCCN)C(=O)N[C@H](C(=O)N[C@@H](CC(C)C)C(N)=O)[C@@H](C)CC [L2]	95.7612	76.9101
CC[C@H](C)[C@H](N)C(=O)N[C@@H](CC(N)=O)C(=O)N[C@@H](CC(C)C)C(=O)N[C@@H](CC(C)C)C(=O)N[C@@H](C)C(=O)N[C@@H](CC(C)C)C(=O)N[C@@H](C)C(=O)N[C@@H](C)C(=O)N[C@@H](CC(C)C)C(=O)N[C@@H](C)C(=O)N[C@@H](CCCCN)C(=O)N[C@@H](CCCCN)C(=O)N[C@H](C(=O)N[C@@H](CC(C)C)C(N)=O)[C@@H](C)CC [L4]	34.0791	15.2128
CC[C@H](C)[C@H](N)C(=O)N[C@@H](CC(N)=O)C(=O)N[C@@H](CC(C)C)C(=O)N[C@@H](CCCCN)C(=O)N[C@@H](CC(C)C)C(=O)N[C@@H](CC(C)C)C(=O)N[C@@H](C)C(=O)N[C@@H](C)C(=O)N[C@@H](CC(C)C)C(=O)N[C@@H](C)C(=O)N[C@@H](CCCCN)C(=O)N[C@@H](CCCCN)C(=O)N[C@H](C(=O)N[C@@H](CC(C)C)C(N)=O)[C@@H](C)CC [L5]	46.6396	25.5295
CC[C@H](C)[C@H](N)C(=O)N[C@@H](CC(N)=O)C(=O)N[C@@H](CC(C)C)C(=O)N[C@@H](CCCCN)C(=O)N[C@@H](C)C(=O)N[C@@H](CC(C)C)C(=O)N[C@@H](CC(C)C)C(=O)N[C@@H](C)C(=O)N[C@@H](CC(C)C)C(=O)N[C@@H](C)C(=O)N[C@@H](CCCCN)C(=O)N[C@@H](CCCCN)C(=O)N[C@H](C(=O)N[C@@H](CC(C)C)C(N)=O)[C@@H](C)CC [L7]	74.1173	35.4322
CC[C@H](C)[C@H](N)C(=O)N[C@@H](CC(N)=O)C(=O)N[C@@H](CC(C)C)C(=O)N[C@@H](CCCCN)C(=O)N[C@@H](C)C(=O)N[C@@H](CC(C)C)C(=O)N[C@@H](C)C(=O)N[C@@H](CC(C)C)C(=O)N[C@@H](CC(C)C)C(=O)N[C@@H](C)C(=O)N[C@@H](CCCCN)C(=O)N[C@@H](CCCCN)C(=O)N[C@H](C(=O)N[C@@H](CC(C)C)C(N)=O)[C@@H](C)CC [L8]	38.4504	16.9354
CC[C@H](C)[C@H](N)C(=O)N[C@@H](CC(N)=O)C(=O)N[C@@H](CC(C)C)C(=O)N[C@@H](CCCCN)C(=O)N[C@@H](C)C(=O)N[C@@H](CC(C)C)C(=O)N[C@@H](C)C(=O)N[C@@H](C)C(=O)N[C@@H](CC(C)C)C(=O)N[C@@H](CC(C)C)C(=O)N[C@@H](CCCCN)C(=O)N[C@@H](CCCCN)C(=O)N[C@H](C(=O)N[C@@H](CC(C)C)C(N)=O)[C@@H](C)CC [L10]	86.3514	52.7294
CC[C@H](C)[C@H](N)C(=O)N[C@@H](CC(N)=O)C(=O)N[C@@H](CC(C)C)C(=O)N[C@@H](CCCCN)C(=O)N[C@@H](C)C(=O)N[C@@H](CC(C)C)C(=O)N[C@@H](C)C(=O)N[C@@H](C)C(=O)N[C@@H](CC(C)C)C(=O)N[C@@H](C)C(=O)N[C@@H](CC(C)C)C(=O)N[C@@H](CCCCN)C(=O)N[C@H](C(=O)N[C@@H](CC(C)C)C(N)=O)[C@@H](C)CC [L11]	59.9826	23.4198
CC[C@H](C)[C@H](N)C(=O)N[C@@H](CC(N)=O)C(=O)N[C@@H](CC(C)C)C(=O)N[C@@H](CCCCN)C(=O)N[C@@H](C)C(=O)N[C@@H](CC(C)C)C(=O)N[C@@H](C)C(=O)N[C@@H](C)C(=O)N[C@@H](CC(C)C)C(=O)N[C@@H](C)C(=O)N[C@@H](CCCCN)C(=O)N[C@@H](CC(C)C)C(=O)N[C@H](C(=O)N[C@@H](CC(C)C)C(N)=O)[C@@H](C)CC [L12]	85.0992	80.1821
CC[C@H](C)[C@H](N)C(=O)N[C@@H](CC(N)=O)C(=O)N[C@@H](CC(C)C)C(=O)N[C@@H](CCCCN)C(=O)N[C@@H](C)C(=O)N[C@@H](CC(C)C)C(=O)N[C@@H](C)C(=O)N[C@@H](C)C(=O)N[C@@H](CC(C)C)C(=O)N[C@@H](C)C(=O)N[C@@H](CCCCN)C(=O)N[C@@H](CCCCN)C(=O)N[C@H](C(=O)N[C@@H](CC(C)C)C(N)=O)[C@@H](C)CC [Lab Mastoparan L, reference compound]	41.709	12.353
CC[C@H](C)[C@H](NC(=O)[C@H](CCCCN)NC(=O)[C@H](CCCCN)NC(=O)[C@H](C)NC(=O)[C@H](CC(C)C)NC(=O)[C@H](C)NC(=O)[C@H](C)NC(=O)[C@H](CC(C)C)NC(=O)[C@H](C)NC(=O)[C@H](CCCCN)NC(=O)[C@H](CC(C)C)NC(=O)[C@H](CC(N)=O)NC(=O)[C@@H](N)CC(N)=O)C(=O)N[C@@H](CC(C)C)C(N)=O [N1]	25.1532	8.003
CC[C@H](C)[C@H](N)C(=O)N[C@@H](CC(N)=O)C(=O)N[C@@H](CC(N)=O)C(=O)N[C@@H](CCCCN)C(=O)N[C@@H](C)C(=O)N[C@@H](CC(C)C)C(=O)N[C@@H](C)C(=O)N[C@@H](C)C(=O)N[C@@H](CC(C)C)C(=O)N[C@@H](C)C(=O)N[C@@H](CCCCN)C(=O)N[C@@H](CCCCN)C(=O)N[C@H](C(=O)N[C@@H](CC(C)C)C(N)=O)[C@@H](C)CC [N3]	47.2847	-0.8054
CC[C@H](C)[C@H](N)C(=O)N[C@@H](CC(N)=O)C(=O)N[C@@H](CC(C)C)C(=O)N[C@@H](CC(N)=O)C(=O)N[C@@H](C)C(=O)N[C@@H](CC(C)C)C(=O)N[C@@H](C)C(=O)N[C@@H](C)C(=O)N[C@@H](CC(C)C)C(=O)N[C@@H](C)C(=O)N[C@@H](CCCCN)C(=O)N[C@@H](CCCCN)C(=O)N[C@H](C(=O)N[C@@H](CC(C)C)C(N)=O)[C@@H](C)CC [N4]	50.001	12.5207
CC[C@H](C)[C@H](N)C(=O)N[C@@H](CC(N)=O)C(=O)N[C@@H](CC(C)C)C(=O)N[C@@H](CCCCN)C(=O)N[C@@H](CC(N)=O)C(=O)N[C@@H](CC(C)C)C(=O)N[C@@H](C)C(=O)N[C@@H](C)C(=O)N[C@@H](CC(C)C)C(=O)N[C@@H](C)C(=O)N[C@@H](CCCCN)C(=O)N[C@@H](CCCCN)C(=O)N[C@H](C(=O)N[C@@H](CC(C)C)C(N)=O)[C@@H](C)CC [N5]	45.6062	6.591
CC[C@H](C)[C@H](N)C(=O)N[C@@H](CC(N)=O)C(=O)N[C@@H](CC(C)C)C(=O)N[C@@H](CCCCN)C(=O)N[C@@H](C)C(=O)N[C@@H](CC(N)=O)C(=O)N[C@@H](C)C(=O)N[C@@H](C)C(=O)N[C@@H](CC(C)C)C(=O)N[C@@H](C)C(=O)N[C@@H](CCCCN)C(=O)N[C@@H](CCCCN)C(=O)N[C@H](C(=O)N[C@@H](CC(C)C)C(N)=O)[C@@H](C)CC [N6]	7.402	6.768
CC[C@H](C)[C@H](N)C(=O)N[C@@H](CC(N)=O)C(=O)N[C@@H](CC(C)C)C(=O)N[C@@H](CCCCN)C(=O)N[C@@H](C)C(=O)N[C@@H](CC(C)C)C(=O)N[C@@H](CC(N)=O)C(=O)N[C@@H](C)C(=O)N[C@@H](CC(C)C)C(=O)N[C@@H](C)C(=O)N[C@@H](CCCCN)C(=O)N[C@@H](CCCCN)C(=O)N[C@H](C(=O)N[C@@H](CC(C)C)C(N)=O)[C@@H](C)CC [N7]	28.8818	10.586
CC[C@H](C)[C@H](N)C(=O)N[C@@H](CC(N)=O)C(=O)N[C@@H](CC(C)C)C(=O)N[C@@H](CCCCN)C(=O)N[C@@H](C)C(=O)N[C@@H](CC(C)C)C(=O)N[C@@H](C)C(=O)N[C@@H](CC(N)=O)C(=O)N[C@@H](CC(C)C)C(=O)N[C@@H](C)C(=O)N[C@@H](CCCCN)C(=O)N[C@@H](CCCCN)C(=O)N[C@H](C(=O)N[C@@H](CC(C)C)C(N)=O)[C@@H](C)CC [N8]	46.3177	16.8851
CC[C@H](C)[C@H](N)C(=O)N[C@@H](CC(N)=O)C(=O)N[C@@H](CC(C)C)C(=O)N[C@@H](CCCCN)C(=O)N[C@@H](C)C(=O)N[C@@H](CC(C)C)C(=O)N[C@@H](C)C(=O)N[C@@H](C)C(=O)N[C@@H](CC(N)=O)C(=O)N[C@@H](C)C(=O)N[C@@H](CCCCN)C(=O)N[C@@H](CCCCN)C(=O)N[C@H](C(=O)N[C@@H](CC(C)C)C(N)=O)[C@@H](C)CC [N9]	3.242	3.083
CC[C@H](C)[C@H](N)C(=O)N[C@@H](CC(N)=O)C(=O)N[C@@H](CC(C)C)C(=O)N[C@@H](CCCCN)C(=O)N[C@@H](C)C(=O)N[C@@H](CC(C)C)C(=O)N[C@@H](C)C(=O)N[C@@H](C)C(=O)N[C@@H](CC(C)C)C(=O)N[C@@H](CC(N)=O)C(=O)N[C@@H](CCCCN)C(=O)N[C@@H](CCCCN)C(=O)N[C@H](C(=O)N[C@@H](CC(C)C)C(N)=O)[C@@H](C)CC [N10]	9.754	1.8653
